{"source": "patent US20260275280A1", "about": "“DIRECTED DIFFERENTIATION PROTOCOLS TO DERIVE BONE FIDE SPINAL SENSORY INTERNEURONS” (THE REGENTS OF THE UNIVERSITY OF CALIFORNIA, priority 2022, published 2026)", "key": {"mESCs-derived NMPs": {"system": "mESCs-derived NMPs", "experiment": "2D directed differentiation of NMPs with RA/BMP4, immunohistochemistry (pSmad1/5/8, Pax3, Pax6, Sox2, Tuj1, Pax2)", "type": "cell-based, mouse", "settings": "24 hr pulse of RA at day 3", "method": "The mouse ESC line, MM13, was routinely maintained in ES cell media (DMEM+20% FBS) with 100u/ml of mouse leukocyte inducing factor (LIF). […] To prepare cells for the differentiation, ESC colonies were dissociated with 0.25% trypsin and plated on gelatin coated plates at 1:10 dilution to reduce MEF transfer. Cells cultured on gelatin coated plates and allowed to proliferate for 1-2 days. To initiate differentiation, cells were plated on 0.1% gelatin coated 24-well CellBIND dishes (Corning) at 20,000 cells/ml density in 0.5 ml/well N2/B27 medium that contains 10 ng/ml basic fibroblast growth factor (bFGF). The N2/B27 medium contains 1:1 portions of Advanced Dulbecco's modified Eagle Media (DMEM) F12 (Hyclone) and Neurobasal media (Thermo Fisher Scientific) supplemented with 0.5×N2, 1×B27 supplement (with Vitamin A), 2 mM L-glutamine, 0.1 mM 2-mercaptoethanol (ME), and 1% BSA. On day 1, small colonies of cells can be observed attached to the bottom of the wells. On day 2, cells were supplemented with 10 ng/ml bFGF and 5 μM CHIR99021 for 24 hours to induce a neuromesodermal identity (Gouti et al., 2014). On day 3, media was changed as follows: for protocol 1, cells were exposed to 100 nM RA for 48 hrs. […] At the end of the differentiation, the cultures were fixed for immunohistochemical analysis or lysed to obtain RNA for RNA-Seq or quantitative reverse transcriptase PCR analysis. […]"}, "[1]": {"system": "mESCs-derived NMPs / NPCs", "experiment": "Bulk RNA-Seq differential expression and qRT-PCR after RA or RA+BMP4 treatment", "type": "cell-based, mouse", "method": "Bulk-RNA sequencing and data processing: Total cell lysate was obtained in buffer RLT (Qiagen) at different time points from three independent differentiations (biological replicates) conducted parallelly. RNA extraction was performed using RNeasy mini kit (Qiagen) and the quality was determined using Agilent Technologies 2100 Bioanalyzer and only samples with a RIN score >8.0 were sequenced. Stranded libraries were constructed using Universal plus mRNA sequencing kit (NuGEN) and sequenced onto 2 lanes of NovaseqS1 to generate 30 million reads/sample. Obtained reads were aligned to the latest mouse reference genome (mm10) using the STAR spliced read aligner. Pearson correlation and principal component analysis (PCA) was performed to determine the similarities among the samples and replicates. Differentially expressed genes were identified using DESeq and EdgeR package on R platform. The candidate genes were selected using cutoff false discovery rate (FDR <0.05) and log fold change (>2). Differentially expressed gene lists were further subjected to Enrichr, Metascape (Zhou et al., 2019) and DAVID functional annotation tools to identify enriched gene ontology (GO) categories.\nQuantitative (a) RT-PCR analysis: RNA was isolated with RNeasy Mini Kit (Qiagen, cat no. 74104), and converted to cDNA using Superscript IV First Strand Synthesis kit (Thermo Fisher Scientific). qRT-PCR was performed using SYBR Green PCR Master Mix (Applied Biosystems) on Roche 480 Lightcycler (Roche). The relative fold expression was calculated using 2-AACt method of comparing the expression of the target gene with that of the housekeeping gene glyceraldehyde 3-phosphate dehydrogenase (Gapdh). All experiments were repeated at least 2-3 times (technical replicates) from at least two independent differentiations (biological replicates), and data is represented as mean±SEM.\nWe took advantage of the directed differentiation protocols to investigate the unresolved mechanisms by which RA and BMP direct dI fate specification. To further validate the use of a stem cell model, we first assessed the genetic basis of the fate decisions mediated by RA signaling. During the 24 hr pulse of RA at day 3, Pax3 levels gradually increase, while T expression concomitantly declines (FIG. 12A). […] To identify the transcriptional changes occurring during this first commitment step, we performed bulk RNA-Seq at day 3 (NMP state), day 3.25 (early transcriptional response to RA) and day 4 (dP state1) (FIG. 11B).\nWe hypothesized that the addition of BMP4 to NPCs in dP state1, directs them to a more dorsal dP state, i.e. dP state2 (FIG. 11A). To define the transcriptional changes occurring after BMP4 addition, we performed bulk RNA-Seq at day 4 (dP state1), day 4.25 (early transcriptional response to RA+BMP4) and at day 5 (dP state2) (FIG. 4A). […] 78 genes, out of 411, were common between both time points (FIGS. 4B, 13B). Focusing on these common genes, we identified enriched functional processes using GO analyses. The GO terms included the BMP signaling pathway (FIG. 4C, Table 3), confirming that the analysis identified BMP responsive genes."}, "hESCs/hiPSCs": {"system": "hESCs/hiPSCs", "experiment": "Induction of NMPs from hPSCs in 2D culture (FGF2, CHIR99021)", "type": "cell-based, human", "settings": "N2/B27 with FGF2 and CHIR99021, up to day 6", "method": "Add 2 mL N2/B27 media containing 10ng of FGF2 and SuM of CHIR99021 (Wnt signaling agonist) to each well of the 6-well plate and return the plate to the incubator. Feed cells every other day with N2/B27 media for up to 6 days. Cells should appear as a monolayer with cells packed together tightly at the end of day 6 (FIG. 16A). This confluency is optimal for embryoid body (EB) formation in the next step."}, "[2]": {"settings": "6 hrs of RA treatment (day 3.25) vs day 3 NMP state"}, "[3]": {"settings": "24 hours of RA exposure (day 4) vs day 3"}}}
{"smiles": "CC1=C(/C=C/C(C)=C/C=C/C(C)=C/C(=O)O)C(C)(C)CCC1", "note": "[RA, retinoic acid]", "values": [{"measurement": "Pax3+ cells by day 4", "setting": "mESCs-derived NMPs", "value": "90-95%"}, {"measurement": "genes significantly downregulated", "setting": "[1]; [2]", "value": 19, "unit": "genes"}, {"measurement": "genes significantly upregulated", "setting": "[1]; [2]", "value": 138, "unit": "genes"}, {"measurement": "genes significantly downregulated", "setting": "[1]; [3]", "value": 590, "unit": "genes"}, {"measurement": "genes significantly upregulated", "setting": "[1]; [3]", "value": 389, "unit": "genes"}, {"measurement": "genes upregulated compared to day 4 control (no RA treatment)", "setting": "[1]; 24 hr treatment of 100 nM RA", "value": 911, "unit": "genes"}, {"measurement": "genes whose expression levels are altered in total", "setting": "[1]; day 3, day 3.25, day 4 of RA treatment", "value": 979, "unit": "genes"}]}
{"smiles": "Cc1c[nH]c(-c2cnc(NCCNc3ccc(C#N)cn3)nc2-c2ccc(Cl)cc2Cl)n1", "note": "[CHIR, CHIR99021]", "values": [{"measurement": "growth rate of the hPSC/NMP monolayer", "setting": "hESCs/hiPSCs", "value": "induces a higher growth rate in the monolayer"}]}
